Where two headings read alike, the source gives them in different places.
Columns and labels:
[1] = target: class A β-lactamase TEM-1 (Escherichia coli, UniProt P62593); experiment: β-Lactamase inhibition, IC50 determination (nitrocefin, spectrophotometric); type: biochemical, E. Coli
Outline: (§1)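 Purified enzymes TEM-1 (4.3 nM), Imi-1 (7.1 nM), CcrA (1.2 nM) and AmpC (2.1 nM) were preincubated with inhibitor 10 min at 25 °C in 50 mM PO4, pH 7.0. Nitrocefin (50 μg/ml) hydrolysis rates at 495 nm over 5 min gave % inhibition versus control; IC50 determined graphically.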

[2] = tested on: Clinical isolates that have been adapted to cause infection in mice; experiment: In vivo antibacterial protection (7 day survival of infected mice, ED50); set-up: species or system mice strain CD-1
Excerpt: In Vivo Antibacterial Protection
Female mice strain CD-1, approximately 18-22 grams, were received from Charles River Laboratories and quarantined 7 days prior to use. In addition, mice may be rendered neutropenic using cytoxan for particular studies.
Clinical isolates that have been adapted to cause infection in mice, are used in the experiment, including infections with strains of E. coli, K. pneumoniae, M. morganii, E. cloacae, S. marcescens, C. freundii, staphylococci, streptococci, P. aeruginosa and N. gonorrhoeae.
Mice are challenged by injecting 0.5 ml intraperitoneally or 0.05 ml intranasally of a predetermined bacterial inoculum suspended in broth, saline or hog gastric mucin (supplemented with dried bovine hemoglobin for N. gonorrhoeae). […] Antibacterial doses (dose concentration prepared by two fold serial dilutions of the antibiotic) are dissolved or suspended in 0.2% aqueous agar or methocel, phosphate buffered saline or an adjuvant are administered orally, subcutaneously or intravenously in the following manner: • a) Orally or subcutaneously: Dose volume of 0.5 ml administered ½ hr after infection. A second dose may be administered 3 hr. after infection for treatment of infections with more virulent organisms. • b) Intravenously: Dose volume of 0.2 ml, administered ½ hr. after infection. For the treatment of infections with more virulent organisms, more doses, up to 48 hr may be administered. (Intravenous dosing will not exceed 3 doses/24 hr period.) • c) Oral pretreatment: Under special circumstances, the pH of the stomach needs to be adjusted in order to increase the gastric stability of the antibiotic. For this purpose, 0.5 ml of phosphate buffered saline (pH7.8, 0.06M) (or specific approved adjuvant) is administered orally ½ hr after infection, followed 5 minutes later by 0.5 ml of antibiotic (also orally) contained in phosphate buffered saline (pH7.8, 0.06M). Animal Species
A detailed explanation as to the number of animals needed for the determination of in vivo efficacy follows: • A) Novel antibiotics are tested at 5 different dose levels with 5 mice per dose level at each of three routes of administration (oral, subcutaneous and intravenous). […] This would require 25 mice/route with 3 routes/antibiotic or 75 mice per novel compound tested. One to two novel antibiotics will be tested per experiment (75-150 mice) • B) The effectiveness of the new compound must be compared to that of a standard, or antibiotic of known effectiveness. Known or previously tested antibiotics are tested at 5 dose levels with 5 mice per dose level by a single route of administration, for a total of 25 mice/antibiotic. Usually 3-6 antibiotics will be tested per experiment. (75-150 mice). • C) Untreated controls—In each of the above tests, untreated animals are infected with 3 different concentrations of bacterial inoculum with 10 mice per concentration (30 mice total in each and every test). These untreated controls are used to determine and maintain the infection level between 10-100 LD50s as required for test to test comparison and validity. Determination of Protective Effects of Antibacterial Agents:
The protective effects of the antibacterial agent(s) are measured by the survival of the infected untreated as compared to the treated animals. For this determination, animals are observed for 7 days after treatment. A census of survivors is taken twice daily and at that time dead as well as moribund animals are removed. The 7 day survival ratio from three separate tests are pooled for estimation of median effective dose (ED50) by computerized program for probit analysis (Cleeland, R. and E. Squires. 1991. Evaluation of New Antimicrobials in Vitro and in Experimental Animal Infections. In Antibiotics in Laboratory Medicine”, 3rd. ed., edited by Victor Lorian. Willams and Wilkins Baltimore, Md. pp. 752-783). […]

[3] = target: class C enzyme AmpC (Enterobacter cloacae, UniProt P05364); experiment: biochemical; set-up: species or system Enterobacter cloaca
Sequence of class C enzyme AmpC (P05364 21-381): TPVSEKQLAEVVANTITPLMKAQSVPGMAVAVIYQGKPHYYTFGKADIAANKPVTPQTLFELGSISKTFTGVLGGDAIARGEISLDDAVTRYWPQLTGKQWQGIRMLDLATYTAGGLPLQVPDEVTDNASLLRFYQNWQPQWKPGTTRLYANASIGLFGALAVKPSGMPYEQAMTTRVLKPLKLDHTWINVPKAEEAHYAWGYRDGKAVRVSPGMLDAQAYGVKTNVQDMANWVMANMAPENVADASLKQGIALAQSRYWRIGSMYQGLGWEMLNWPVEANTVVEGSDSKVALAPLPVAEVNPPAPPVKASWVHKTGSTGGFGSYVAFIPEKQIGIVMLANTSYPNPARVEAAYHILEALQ
Outline: as §1

[4] = target: class A β-lactamase Imi-1 (Enterobacter cloacae, UniProt Q46991); experiment: β-Lactamase inhibition, IC50 determination (nitrocefin, spectrophotometric); type: biochemical
Sequence of class A β-lactamase Imi-1 (Q46991 entry or part of it): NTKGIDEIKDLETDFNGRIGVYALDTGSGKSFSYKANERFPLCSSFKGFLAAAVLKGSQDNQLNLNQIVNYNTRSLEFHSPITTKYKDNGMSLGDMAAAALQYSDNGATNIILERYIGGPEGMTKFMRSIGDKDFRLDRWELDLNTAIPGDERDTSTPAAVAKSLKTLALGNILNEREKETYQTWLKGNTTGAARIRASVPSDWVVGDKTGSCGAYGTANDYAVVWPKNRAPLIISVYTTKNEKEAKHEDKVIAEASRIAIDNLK

[5] = target: class B enzyme CcrA (Bacteroides fragilis, UniProt P25910); experiment: as above; type: biochemical; conditions: enzyme 1.2 nM; 10 min preincubation at 25° C.; nitrocefin 50 μg/ml; 50 mM PO4, pH 7.0; read-out: IC50 (nM) Class B Ccr
Sequence of class B enzyme CcrA (P25910 19-249): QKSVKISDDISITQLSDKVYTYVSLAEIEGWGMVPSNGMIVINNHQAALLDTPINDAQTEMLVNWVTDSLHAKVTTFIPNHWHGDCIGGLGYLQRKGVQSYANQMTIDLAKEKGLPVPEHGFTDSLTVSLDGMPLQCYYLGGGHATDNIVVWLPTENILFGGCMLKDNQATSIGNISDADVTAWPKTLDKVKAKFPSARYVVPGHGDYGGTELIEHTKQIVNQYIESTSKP
Outline: as §1

[6] = tested on: E. Cloacae GC1477 (Ampc); experiment: Antimicrobial susceptibility testing, microbroth dilution MIC of piperacillin + inhibitor; type: cell-based; conditions: piperacillin combined with constant 4 μg/ml inhibitor; Inc: 35° C. for 18 hours
Outline: (§2)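 Inhibitor kept at 4 μg/ml (final) while piperacillin varied two-fold; NCCLS broth microdilution, MHBII, 10^5 CFU/ml, 18-22 h at 35° C.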

[7] = tested on: E. Coli GC2847 (TEM-1); experiment: as above; type: cell-based; conditions: piperacillin combined with constant 4 μg/ml inhibitor; Inc: 35° C. for 18 hours
Outline: as §2

[8] = tested on: P. aeruginos GC1764 (Ampc); experiment: as above; type: cell-based; conditions: piperacillin combined with constant 4 μg/ml inhibitor; Inc: 35° C. for 18 hours
Outline: as §2

[9] = tested on: S. Marcescens GC1781 Sme-1 + Ampc; experiment: as above; type: cell-based; conditions: piperacillin combined with constant 4 μg/ml inhibitor; Inc: 35° C. for 18 hours
Outline: as §2

[10] = tested on: E. Coli GC2920 (IRT-2); experiment: as above; type: cell-based; conditions: piperacillin combined with constant 4 μg/ml inhibitor; Inc: 35° C. for 18 hours
Outline: as §2

[11] = tested on: E. Coli GC2203; experiment: as above; type: cell-based; conditions: piperacillin combined with constant 4 μg/ml inhibitor; Inc: 35° C. for 18 hours
Outline: as §2

[12] = tested on: E. Coli GC2844; experiment: as above; type: cell-based; conditions: piperacillin combined with constant 4 μg/ml inhibitor; Inc: 35° C. for 18 hours
Outline: as §2

[13] = tested on: S. aureus GC2216; experiment: as above; type: cell-based; conditions: piperacillin combined with constant 4 μg/ml inhibitor; Inc: 35° C. for 18 hours
Outline: as §2

[14] = tested on: E. Coli GC2894 (Ampc); experiment: as above; type: cell-based; conditions: piperacillin combined with constant 4 μg/ml inhibitor; Inc: 35° C. for 18 hours
Outline: as §2

[15] = enzyme 4.3 nM, 10 min preincubation at 25° C., nitrocefin 50 μg/ml, 50 mM PO4, pH 7.0, read-out: IC50 (nM) Class A TEM-1
[16] = enzyme 2.1 nM, 10 min preincubation at 25° C., nitrocefin 50 μg/ml, 50 mM PO4, pH 7.0, read-out: IC50 (nM) Class C AmpC
[17] = enzyme 7.1 nM, 10 min preincubation at 25° C., nitrocefin 50 μg/ml, 50 mM PO4, pH 7.0, read-out: IC50 (nM) Class A Imi
[18] = Ratio of Piperacillin Inhibitor not given

Sequence of class A β-lactamase TEM-1 (P62593 24-286 limits assumed): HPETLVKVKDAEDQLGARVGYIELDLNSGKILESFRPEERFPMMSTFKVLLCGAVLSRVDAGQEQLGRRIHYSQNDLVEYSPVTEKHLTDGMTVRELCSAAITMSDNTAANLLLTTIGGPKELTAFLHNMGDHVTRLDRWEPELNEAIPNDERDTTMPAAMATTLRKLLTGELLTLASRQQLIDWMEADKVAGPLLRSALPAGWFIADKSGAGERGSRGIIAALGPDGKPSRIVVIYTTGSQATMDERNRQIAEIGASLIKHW

| SMILES | IC50 [1, 15] | ED50 ([2]; Ratio of Piperacillin Inhibitor 4:1) | IC50 [3, 16] | IC50 [4, 17] | IC50 [5] | Minimal Inhibitory Concentration E. Cloacae GC1477 (Ampc) [6] | Minimal Inhibitory Concentration E. Coli GC2847 (TEM-1) [7] | Minimal Inhibitory Concentration P. aeruginos GC1764 (Ampc) [8] | Minimal Inhibitory Concentration S. Marcescens GC1781 Sme-1 + Ampc [9] | Minimal Inhibitory Concentration E. Coli GC2920 (IRT-2) [10] | Minimal Inhibitory Concentration E. Coli GC2203 [11] | Minimal Inhibitory Concentration E. Coli GC2844 [12] | Minimal Inhibitory Concentration S. aureus GC2216 [13] | Minimal Inhibitory Concentration E. Coli GC2894 (Ampc) [14] | ED50 [2, 18] | melting point | IC50 [1] | IC50 [3] | IC50 [4] |
| --- | --- | --- | --- | --- | --- | --- | --- | --- | --- | --- | --- | --- | --- | --- | --- | --- | --- | --- | --- |
| Cc1ccc2c(c1)sc1nc(/C=C3/C(=O)N4C(C(=O)O)=CS[C@H]34)cn12 [Example 7] | 2.6 nM | 137 mg/kg | 1.1 nM | 106 nM | 103 nM | 32 µg/mL | 4 µg/mL | 16 µg/mL | 0.5 µg/mL | 2 µg/mL | 1 µg/mL | 2 µg/mL | <0.06 µg/mL | 4 µg/mL |  |  |  |  |  |
| O=C(O)C1=CS[C@@H]2/C(=C\c3cn4c5c(sc4n3)COCC5)C(=O)N12 [Example 15, (5R),(6Z)-6-(5,8-dihydro-6H-imidazo[2,1-b]pyrano[4,3-d][1,3]thiazol-2-ylmethylene)-7-oxo-4-thia-1-azabicyclo[3.2.0]hept-2-ene-2-carboxylic acid] | 2.8 nM |  | 1.5 nM | 100 nM | 200 nM | 16 µg/mL | 4 µg/mL | 4 µg/mL | 1 µg/mL | 2 µg/mL | 2 µg/mL | 2 µg/mL | 0.05 µg/mL | 2 µg/mL | 25 mg/kg |  |  |  |  |
| O=C(O)C1=CS[C@@H]2/C(=C\c3cn4c5c(sc4n3)CCCC5)C(=O)N12 [Example 19, (5R),(6Z)-7-oxo-6-(5,6,7,8-tetrahydroimidazo[2,1-b][1,3]benzothiazol-2-ylmethylene)-4-thia-1-azabicyclo[3.2.0]hept-2-ene-2-carboxylic acid] | 1.9 nM |  | 0.62 nM | 33 nM | 215 nM | 32 µg/mL | 8 µg/mL | 1 µg/mL | 8 µg/mL | 2 µg/mL | 2 µg/mL | 2 µg/mL | .06 µg/mL | 4 µg/mL | 63 mg/kg |  |  |  |  |
| Cc1nc2nc(/C=C3/C(=O)N4C(C(=O)[O-])=CS[C@H]34)nn2c2c1CCC2.[Na+] [Example 22, (5R,6Z)-6-[(5-methyl-7,8-dihydro-6H-cyclopenta[e][1,2,4]triazolo[1,5-a]pyrimidin-2-yl)methylene]-7-oxo-4-thia-1-azabicyclo[3.2.0]hept-2-ene-2-carboxylic acid, sodium salt] |  |  |  |  |  |  |  |  |  |  |  |  |  |  |  | 250 °C (dec.) |  |  |  |
| O=C([O-])C1=CS[C@@H]2/C(=C\c3nc4ncc5c(n4n3)CCC3(C5)OCCO3)C(=O)N12.[Na+] [Example 24, (5R,6Z)-6-(8′,9′-dihydro-6′H-spiro[1,3-dioxolane-2,7′-[1,2,4]triazolo[1,5-a]quinazolin]-2′-ylmethylene)-7-oxo-4-thia-1-azabicyclo[3.2.0]hept-2-ene-2-carboxylic acid, sodium salt] |  |  |  |  |  |  |  |  |  |  |  |  |  |  |  | > 250 °C (dec.) |  |  |  |
| Cc1nc2nc(/C=C3/C(=O)N4C(C(=O)[O-])=CS[C@H]34)nn2c2c1CCCC2.[Na+] [Example 25, (5R,6Z)-6-[(5-methyl-6,7,8,9-tetrahydro[1,2,4]triazolo[1,5-a]quinazolin-2-yl)methylene]-7-oxo-4-thia-1-azabicyclo[3.2.0]hept-2-ene-2-carboxylic acid, sodium salt] |  |  |  |  |  |  |  |  |  |  |  |  |  |  |  | 250 °C (dec.) |  |  |  |
| O=C([O-])C1=CS[C@@H]2/C(=C\c3cn4c5c(c(OCCOCc6ccccc6)nc4n3)CCC5)C(=O)N12.[Na+] [Example 27, (5R,6Z)-6-(5-[2-(benzyloxy)ethoxy]-7,8-dihydro-6H-cyclopenta[e]imidazo[1,2-a]pyrimidin-2-ylmethylene)-7-oxo-4-thia-1-azabicyclo[3.2.0]hept-2-ene-2-carboxylic acid, sodium salt] |  |  |  |  | 180 nM |  |  |  |  |  |  |  |  |  |  | > 250 °C | 12 nM | 3 nM | 33 nM |
| O=C([O-])C1=CS[C@@H]2/C(=C\c3ccc4nc5n(c4c3)CCS5)C(=O)N12.[Na+] [Example 28, (5R,6Z)-6-(2,3-dihydro[1,3]thiazolo[3,2-a]benzimidazol-6-ylmethylene)-7-oxo-4-thia-1-azabicyclo[3.2.0]hept-2-ene-2-carboxylic acid, sodium salt] |  |  |  |  | 110 nM |  |  |  |  |  |  |  |  |  |  | > 250 °C | 3.2 nM | 5.7 nM | 90 nM |

From US7691842B2, “Tricyclic 6-alkylidene-penems as β-lactamase inhibitors” (Wyeth LLC, priority 2002, dated 2010)
